The values that follow are results of earlier work, collected in patent US8307894B2, “Composition and method for inhibiting the deleterious effects of sulfate reducing bacteria” (priority 2009, dated 2012).

The structures appear in SMILES notation. Read-outs that look alike come from different tables or passages of the source.

In series [1] the test system is sulfate reducing bacteria. The following applies: government study (12/04).
Test in series [2]: not given
This is another data set of the same source.

Series [3] concerns insects and aquatic life including fish.

As for `[O]=[Mo](=[O])([O-])[O-]` [molybdate], the “inhibition of sulfate reducing bacteria” value in series [1] is on record as “possible candidates as inhibitors”.

Take `C=C(C)[C@H]1Cc2c(ccc3c2O[C@@H]2COc4cc(OC)c(OC)cc4[C@@H]2C3=O)O1` [rotenone]: the “lifetime in the environment” value (breaks down when exposed to sunlight) is “six”. For the same compound, the persistence in water entry (in water) is on record as “six”. Moreover, the toxicity result in the series with humans and other mammals is “mildly toxic”; in series [3], “extremely toxic”. For the same compound, the Solubility entry in series [2] (in ethanol) was “slightly soluble”; in series [2] (in ether and acetone), “Soluble”.
